Data taken from patent EP1219619B1, “3-AMINO-2-[…] DERIVATIVES AS SUBSTANCE P ANTAGONISTS” (HISAMITSU PHARMACEUTICAL CO. INC., priority 1999, dated 2001).
Counter-ions that a name gives are not always drawn. Like-named read-outs stand apart in the source and are kept apart here.

Assays:
[1] = system: male ferrets; test: Antiemetic action against cisplatin-induced vomiting; type: in vivo; conditions: test compound 3 mg/kg intravenously; cisplatin 10 mg/kg intraperitoneal; observed over six hours; inhibition vs control group, number of episodes
Protocol: A test was conducted using male ferrets (around 1.2 kg body weight) as follows. Vomiting was induced by intraperitoneal administration of 10 mg/kg of cisplatin to the ferrets in a volume of 3 ml/kg. […] Each test compound was administered intravenously through radial skin at a dose of 3 mg/kg, and immediately after the administration, cisplatin was administered intraperitoneally. Then vomiting symptoms due to cisplatin was observed over six hours. […] The results are shown in Table 2 in terms of rates of inhibition to a control group using the number of times symptoms of vomiting occurred as an index.

[2] = molecular target: T1, NK1 TACHYKININ RECEPTOR, HUMAN(CHO) (Homo sapiens, UniProt P25103)
T1 sequence (P25103 whole entry): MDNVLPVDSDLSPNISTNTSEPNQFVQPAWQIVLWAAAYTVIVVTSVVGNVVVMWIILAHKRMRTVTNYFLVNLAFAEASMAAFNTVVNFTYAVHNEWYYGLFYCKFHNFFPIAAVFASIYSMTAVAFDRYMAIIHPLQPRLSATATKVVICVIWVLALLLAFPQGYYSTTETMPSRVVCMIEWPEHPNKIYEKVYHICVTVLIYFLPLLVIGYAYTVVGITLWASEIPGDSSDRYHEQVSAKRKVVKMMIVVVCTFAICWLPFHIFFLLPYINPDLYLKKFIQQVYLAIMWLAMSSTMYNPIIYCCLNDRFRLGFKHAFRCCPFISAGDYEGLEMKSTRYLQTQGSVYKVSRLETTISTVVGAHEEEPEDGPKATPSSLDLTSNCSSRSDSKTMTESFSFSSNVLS
Protocol: (§1) As a sample, NK1 TACHYKININ RECEPTOR, HUMAN(CHO) diluted with incubation buffer (20 mM HEPES/NaOH buffer containing 1 mM MgCl2, 0.1% BSA: pH 7.4) was used (18.75 µg protein/ml). […] And 20 µl of CP-99,994 (final concentration of 1.5 µM) and 20 µl of distilled water were added to determine the amount of nonspecific binding and the amount of total binding, respectively. […] After one hour of incubation, the incubated mixture was filtered with suction and washed with a wash buffer (50 mM Tris/HCl buffer: pH 7.4) four times. The membrane fitted to each well of the MultiScreen was completely dried and punched inside each vial, and 5 ml of cocktail was added to give a sample to be measured.

[3] = molecular target: T1, NK1 TACHYKININ RECEPTOR, HUMAN(CHO); test: biochemical
Protocol: as §1

| Compound | Ki [3] | Rate of Inhibition (%) Retching [1] | Rate of Inhibition (%) Vomiting [1] | Ki [2] |
| --- | --- | --- | --- | --- |
| (2S,3S)-3-[(5-phenyl-2,3-dihydrobenzofuran-7-yl)methyl]amino-2-phenylpiperidine hydrochloride [Example 9] |  | 68.4% | 59.3% | 0.41 nM |
| Cl.c1ccc([C@@H]2NCCC[C@@H]2NCc2c3c(cc4c2OCC4)OCC3)cc1 [Example 16, (2S,3S)-3-[(2,3,6,7-tetrahydrobenzo[1,2-b:4,5-b']difuran-4-yl)methyl]amino-2-phenylpiperidine hydrochloride] | 1.53 nM | 58.7% | 62.6% |  |
| Cl.FC(F)(F)c1nc(-c2cc3c(c(CN[C@H]4CCCN[C@H]4c4ccccc4)c2)OCC3)no1 [Example 15, (2S, 3S)-3-[(5-(5-trifluoromethyl-1,2,4-oxadiazole-3-yl)-2,3-dihydrobenzofuran-7-yl)methyl]amino-2-phenylpiperidine hydrochloride] |  | 63.2% | 66.8% |  |

More lines, main results first:

| Ki [3] | Compound | Rate of Inhibition (%) Retching [1] | Rate of Inhibition (%) Vomiting [1] | Ki [2] |
| --- | --- | --- | --- | --- |
| 0.35 nM | c1ccc([C@@H]2NCCC[C@@H]2NCc2cc(-c3ccsc3)cc3c2OCC3)cc1 [Example 7, (2S,3S)-3-[(5-(thiophene-3-yl)-2,3-dihydrobenzofuran-7-yl)methyl]amino-2-phenylpiperidine hydrochloride] |  |  |  |
| 0.35 nM | c1ccc([C@@H]2NCCC[C@@H]2NCc2cc(-c3cccs3)cc3c2OCC3)cc1 [Example 6, (2S,3S)-3-[(5-(thiophene-2-yl)-2,3-dihydrobenzofuran-7-yl)methyl]amino-2-phenylpiperidine hydrochloride] |  |  |  |
| 0.18 nM | Cl.c1ccc([C@@H]2NCCC[C@@H]2NCc2cc(-n3cnnn3)cc3c2OCC3)cc1 [Example 3, (2S,3S)-3-[(5-(tetrazole-1-yl)-2,3-dihydrobenzofuran-7-yl)methyl]amino-2-phenylpiperidine hydrochloride] | 59.1% | 61.0% |  |
| 1.01 nM | Cl.FC(F)(F)c1ccc(-c2cc3c(c(CN[C@H]4CCCN[C@H]4c4ccccc4)c2)OCC3)cc1 [Example 12, (2S,3S)-3-[(5-(4-trifluoromethylphenyl)-2,3-dihydrobenzofuran-7-yl)methyl]amino-2-phenylpiperidine hydrochloride] | 88.4% | 91.1% |  |
